Assay results: patent US20180133223A1, “COMBINATION THERAPY WITH A PHOSPHOINOSITIDE 3-KINASE INHIBITOR WITH A ZINC BINDING MOIETY” (Curis, Inc., priority 2016, published 2018)
Marks after values point to notes of the source that are not given here. One block for each compound: values may come before it.

How the values were obtained:
xenograft tumor = experiment: Mouse xenograft tumor models; type: in vivo; conditions: oral or intravenous administration
WSUDLCL2 = experiment: Tumor growth inhibition, WSUDLCL2; type: in vivo; conditions: WSUDLCL2, 100 mg/kg
[1] = Tumor tissue uptake in xenograft tumor bearing mice; type: in vivo; conditions: oral or intravenous dosing
[2] = test system: HDACs (HeLa cell nuclear extracts); experiment: HDAC activity assay (Biomol Color de Lys), HeLa cell nuclear extracts; type: biochemical; conditions: HeLa cell nuclear extracts as source of HDACs
Protocol: HDAC inhibitory activity was assessed using the Biomol Color de Lys system (AK-500, Biomol, Plymouth Meeting, Pa.). Briefly, HeLa cell nuclear extracts were used as a source of HDACs. Different concentrations of test compounds were serially diluted in dimethylsulfoxide (DMSO) and added to HeLa cell nuclear extracts in the presence of a colorimetric artificial substrate. Final assay condition contained 50 mM Tris/Cl, pH 8.0, 137 mM NaCl, 2.7 mM KCl and 1 mM MgCl2. Reactions were carried in room temperature (25° C.) for 1 hour before addition of developer for termination. Relative enzyme activity was measured in the WALLAC Victor II 1420 microplate reader as fluorescence intensity (excitation: 350-380 nm; emission: 440-460 nm). Data were analyzed using GraphPad Prism (v4.0a) with a sigmoidal dose response curve fitting for IC50 calculation.

DOHH2 = DOHH2 diffuse large B cell lymphoma xenograft model; type: in vivo, mice; conditions: DOHH2, 100 mg/kg
Protocol: Six- to 9-week-old female immunodeficient Fox Chase SCID Beige mice obtained from Charles River Laboratories (Wilmington, Mass.) were subcutaneously injected with 5×10^6 cells in a medium suspension of 100 to 200 μL into the right hind flank region. The treatment was started when the average tumor size reached approximately 100 to 200 mm^3. […] Venetoclax was formulated in 60% phosal 50PG, 30% PEG 400, 10% ethanol (Vehicle 2; Sigma Aldrich, St. Louis, Mo.).
Varying doses of Compound 1 alone, venetoclax alone, the two agents in combination or vehicle were administered orally as per Institutional Animal Care and Use Committee guidelines. […] Venetoclax and Vehicle 2 were dosed daily for 21 days.
Tumor size was measured twice weekly and the volume was expressed in mm^3 using the formula, V=0.5a×b^2, where a and b were the long and short diameters of the tumor, respectively. […]
(§1) Differences between values obtained in tumors treated with different experimental conditions were determined using the Student's t-test on GraphPad Prism 5.0 (Graphpad Software). p<0.05 was considered as statistically significant.

OCILY3 = experiment: Tumor growth inhibition, OCILY3; type: in vivo; conditions: OCILY3, 100 mg/kg
SUDHL4 = experiment: SU-DHL-4 diffuse large B cell lymphoma xenograft model; type: in vivo, mice; conditions: SUDHL4, 100 mg/kg
Protocol: 7- to 9-week-old female immunodeficient Fox Chase SCID Beige mice (15-24 g) obtained from Charles River Laboratories (Wilmington, Mass.) were subcutaneously injected with 5×10^6 SU-DHL-4 cells in a medium suspension of 100 μL cold PBS into the right hind flank region. The treatment was started 29 days following implantation; the average tumor size reached was 126 mm^3. […] Venetoclax (ABT-199) was dissolved in Vehicle 2 (60% phosal 50 PG, 30% PEG 400 and 10% ethanol) to a concentration of 20 mg/mL.
In Groups H to K, Compound 1 and venetoclax were dosed within one minute of each other.
Tumor size was measured twice weekly and the volume was expressed in mm^3 using the formula, V=0.5a×b^2, where a and b were the long and short diameters of the tumor, respectively. The tumor size was then used for the calculation of tumor growth inhibition (TGI)=(1−(T1−T0)/(C1−C0))×100, where C1=mean tumor volume of control mice at time t; T1=mean tumor volume of treated mice at time t; C0=mean tumor volume of control mice at time 0; and T0=mean tumor volume of treated mice at time 0.
as §1

KARPAS422 = experiment: Tumor growth inhibition, KARPAS422; type: in vivo; conditions: KARPAS422, 100 mg/kg
U2932 = experiment: Tumor growth inhibition, U2932; type: in vivo; conditions: U2932, 100 mg/kg
[3] = Oral bioavailability in animal models; type: in vivo
[4] = Genotoxicity testing, Ames test
WSUDLCL2 cells = experiment: Cancer cell proliferation / drug combination (CellTiter-Glo); type: cell-based
Protocol: (§2) DLBCL cancer cell lines were purchased from the American Type Culture Collection (Manassas, Va.) and German Collection of Microorganisms and Cell Cultures (Braunschweig, Germany). Cells were maintained according to manufacturing recommendation and incubated at 37° C. in a humidified atmosphere of 5% CO2. Growth media was changed every 2 to 3 days and cells were maintained at a density of 2×10^6 to 4×10^6 cells/mL. Exponentially growing cell cultures were used for all experiments described below.
(§3) Cells were plated at densities of 2×10^4 in 96-well flat-bottomed plates with the recommended culture medium for proliferation assays. Cells were then incubated with indicated compounds at various concentrations for indicated amount of time in culture medium supplemented with 10% (v/v) FBS. Cell viability was assessed using the […]-GLO® Luminescent Cell Viability Assay (Promega, Madison, Wis.). GraphPad Prism 5.0 (Graphpad Software, La Jolla, Calif.) was used for curve fitting and IC50 calculation. Two independent experiments with duplicates were performed for each experiment.
(§4) Drug combination synergy was determined based on dose-effect curves generated as cell proliferation after 24 hours of treatment.

OCILY3 cells = experiment: as above; type: cell-based
Protocol: as §2, §3, §4

SUDHL4 cells = experiment: as above; type: cell-based
Protocol: as §2, §3, §4

DOHH2 cells = experiment: as above; type: cell-based; conditions: DOHH2, Follicular Lymphoma, single agent; read-out: ABT-199 EC50
Protocol: as §2, §3, §4

KARPAS422 cells = experiment: as above; type: cell-based
Protocol: as §2, §3, §4

U2932 cells = experiment: as above; type: cell-based; conditions: U2932, ABC DLBCL, single agent; read-out: ABT-199 EC50
Protocol: as §2, §3, §4

Compound: COc1ccc(-c2nc(N3CCOCC3)c3sc(CN(C)c4ncc(C(=O)NO)cn4)cc3n2)cn1 [Compound 1, N-hydroxy-2-(((2-(6-methoxypyridin-3-yl)-4-morpholinothieno[3,2-d]pyrimidin-6-yl)methyl)(methyl)amino)pyrimidine-5-carboxamide]
antitumor activity (xenograft tumor): substantial antitumor activity
Compound 1 %TGI (100 mg/kg) (WSUDLCL2): 69%
uptake by the tumor tissue [1]: significant uptake by the tumor tissue
IC50 [2]: < 100 nM
Compound 1 %TGI (100 mg/kg) (DOHH2): 56%
Compound 1 %TGI (100 mg/kg) (OCILY3): 23%
Compound 1 %TGI (100 mg/kg) (SUDHL4): 47%*
Compound 1 %TGI (100 mg/kg) (KARPAS422): 33%
Compound 1 %TGI (100 mg/kg) (U2932): 97%
oral bioavailability [3]: significant oral bioavailability
safety profile, genotoxicity (Ames test) [4]: favorable safety profile

EC50 (WSUDLCL2 cells; WSUDLCL2, GCB DLBCL, single agent, read-out: ABT-199 EC50): 3660 nM
EC50 (OCILY3 cells; OCILY3, ABC DLBCL, single agent, read-out: ABT-199 EC50): 20000 nM
EC50 (SUDHL4 cells; SUDHL4, GBC DLBCL, single agent, read-out: ABT-199 EC50): 2130 nM
EC50 (DOHH2 cells): 133 nM
EC50 (KARPAS422 cells; KARPAS422, Follicular Lymphoma, single agent, read-out: ABT-199 EC50): 15600 nM
EC50 (U2932 cells): 476 nM
Compound: venetoclax [ABT-199]
sensitivity of cell line to single agent (WSUDLCL2 cells; WSUDLCL2): refractory
sensitivity of cell line to single agent (OCILY3 cells; OCILY3): refractory
sensitivity of cell line to single agent (SUDHL4 cells; SUDHL4): refractory
sensitivity of cell line to single agent (KARPAS422 cells; KARPAS422): refractory
